Assays:
[1] = tested on: OGD/R‐treated HT22 cells; experiment: Neuroprotective effect on OGD/R-treated HT22 cells, cell viability by CCK-8; type: cell-based; details: for viability at 2 µM / viability at 20 µM: Mus musculus, HT-22, 6 h OGD, 24 h reoxygenation with compound, relative to control cells, mean ± S.D., n = 3
Procedure: HT22 cells were washed with phosphate buffered saline (PBS), then DMEM sugar‐free medium (Gibco, USA) was added and placed in the anaerobic incubator of 5% CO2, 1% O2, and 37 °C for 6 h. PB3 or other compounds were previously dissolved in DMEM/F‐12 with 10% FBS and 1% penicillin/streptomycin. After undergoing OGD for 6 h, the medium was replaced by DMEM/F‐12 with 10% FBS and 1% penicillin/streptomycin containing PB3 or other compounds and kept in a humidified 5% CO2, 37 °C incubator for 24 h.
The CCK‐8 assay kit (Yeasen, China) was used to assess cell viability. All operations were performed following instructions. HT22 cells were seeded into the 96‐well plate (3000 cells per well). The cells were cultured at 37 °C with 5% CO2 in a humidified incubator overnight. After 6 h of OGD, the medium was replaced by DMEM/F‐12 with 10% FBS and 1% penicillin/streptomycin containing PB3 or other compounds and kept in a humidified 5% CO2, 37 °C incubator for 24 h. Then, the cells were washed with PBS, the medium was replaced with DMEM/F‐12 with 10% FBS and 1% penicillin/streptomycin containing 10% CCK‐8 solution, and incubated for 1 h at 37 °C. The absorbance was assessed by a Synergy H1 multi‐mode microplate reader (BioTek, USA) at 450 nm.

[2] = target: T1, G3BP1 (Mus musculus, UniProt P97855); experiment: Pull-down analysis with PB3-BP probe in HT22 lysates; type: binding; details: 200 µM PB3‐BP, blocked by free PB3
T1 construct: endogenous in cells; host or cells: HT22 cell lysate
Procedure: HT22 cells were grown to 90% confluency and harvested by trypsin and resuspended in 1 mL PBS (containing protease inhibitors and 0.1% Triton X‐100). The samples were subjected to three freeze–thaw cycles in liquid nitrogen. Each cell lysate was centrifuged (12000 g for 30 min at 4 °C), and the supernatant was collected. The protein concentrations were determined by a BCA protein assay kit (Thermo Scientific, USA). The lysates were adjusted to 2 mg mL^−1 and treated with 200 µM PB3 or DMSO, labeled with 200 µM of PB3‐BP or DMSO, and then put on ice under UV radiation at 365 nm for 1 h. The labeled proteins were precipitated with chloroform‐methanol. Then the precipitations were resuspended with 1.2% SDS/PBS and combined with 300 µM biotin‐PEG3‐azide, 100 µM tris(benzyltriazolylmethyl)amine, 1 mM tris(2‐carboxyethyl)phosphine hydrochloride, and 1 mM CuSO4 for 1 h. After this reaction, the proteomes were extracted again with chloroform‐methanol. The proteins were solubilized with 1.2% SDS/PBS and diluted 5x with PBS. The solubilized proteins were incubated with streptavidin beads (100 µL of slurry, Thermo Scientific, USA) at room temperature for 3 h with rotation. […] The eluted proteins were analyzed by SDS‐polyacrylamide gel electrophoresis and immunoblotted with anti‐G3BP1 antibody.

[3] = type: physicochemical
Procedure: Furthermore, a small‐molecule procyanidin B3‐benzophenone probe (PB3‐BP, 2, Figure 2G) was synthesized based on a non‐protective condensation strategy (Scheme S1, Supporting Information).^[ [29] ^] The stability of compound 2 is poor, and its structure is determined by 2D‐NMR after acetylation (Figure S4, Supporting Information). […] To identify the specific targeting sites of PB3 on G3BP1, the ultraviolet‐crosslinked complex of PB3‐BP/G3BP1 was digested with trypsin and subjected to LC‐MS/MS analysis.^[ [30] ^] […] To evaluate the affinity between the wild type and four mutants (L105A, R107A, Q134A, D135A) ^[ [34] ^] of the G3BP1 NTF2L domain and PB3, molecular dynamics simulations were performed to analyze each complex system based on docking results.^[ [35] ^]

T1 sequence (P97855 whole entry): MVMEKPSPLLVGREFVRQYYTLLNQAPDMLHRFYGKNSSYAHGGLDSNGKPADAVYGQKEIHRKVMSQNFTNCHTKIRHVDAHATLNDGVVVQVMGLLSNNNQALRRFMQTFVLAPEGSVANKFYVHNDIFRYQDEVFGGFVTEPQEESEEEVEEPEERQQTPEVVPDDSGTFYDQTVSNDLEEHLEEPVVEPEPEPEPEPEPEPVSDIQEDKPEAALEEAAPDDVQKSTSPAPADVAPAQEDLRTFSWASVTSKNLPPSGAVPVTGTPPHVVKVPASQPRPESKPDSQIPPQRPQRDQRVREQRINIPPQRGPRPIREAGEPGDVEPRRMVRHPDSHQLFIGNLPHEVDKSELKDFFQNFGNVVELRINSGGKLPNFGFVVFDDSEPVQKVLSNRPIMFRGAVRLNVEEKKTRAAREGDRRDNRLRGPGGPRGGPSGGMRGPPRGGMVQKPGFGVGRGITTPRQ

Structure (SMILES)	neuroprotective activity ([1]; 100 µM, OGD/R‐treated HT22 cells)	pull-down of G3BP1 [2]	stability [3]	viability at 2 µM [1] [%]	viability at 20 µM [1] [%]
C#CCN(Cc1ccc(C(=O)c2ccccc2)cc1)C(=O)COc1cc(O)c([C@@H]2c3c(O)cc(O)cc3O[C@H](c3ccc(O)c(O)c3)[C@H]2O)c2c1C[C@H](O)[C@@H](c1ccc(O)c(O)c1)O2 [Compound 2, N‐(4‐Benzoylbenzyl)‐2‐(((2R,2′R,3S,3′S,4S)‐2,2′‐bis(3,4‐dihydroxyphenyl)‐3,3′,5,7,7′‐pentahydroxy‐[4,8′‐bichroman]‐5′‐yl)oxy)‐N‐(prop‐2‐yn‐1‐yl)acetamide]	retained the neuroprotective activity of PB3	pulled down	poor		
Cc1c(O)cc(O)c2c1O[C@H](c1ccc(O)c(O)c1)[C@@H](O)[C@@H]2c1c(O)cc(O)c2c1O[C@H](c1ccc(O)c(O)c1)[C@@H](O)C2 [Compound 6a, 8‐Methyl‐(+)‐Catechin‐(4α,8)‐(+)‐Catechin]				56.7 ± 2.22	70.2 ± 2.92
CCc1c(O)cc(O)c2c1O[C@H](c1ccc(O)c(O)c1)[C@@H](O)[C@@H]2c1c(O)cc(O)c2c1O[C@H](c1ccc(O)c(O)c1)[C@@H](O)C2 [Compound 6b, 8‐Ethyl‐(+)‐Catechin‐(4α,8)‐(+)‐Catechin]				62 ± 9.21	73.6 ± 4.78
CCCc1c(O)cc(O)c2c1O[C@H](c1ccc(O)c(O)c1)[C@@H](O)[C@@H]2c1c(O)cc(O)c2c1O[C@H](c1ccc(O)c(O)c1)[C@@H](O)C2 [Compound 6d, 8‐Propyl‐(+)‐Catechin‐(4α,8)‐(+)‐Catechin]				62.1 ± 3.73	78.8 ± 1.43
CC(C)Cc1c(O)cc(O)c2c1O[C@H](c1ccc(O)c(O)c1)[C@@H](O)[C@@H]2c1c(O)cc(O)c2c1O[C@H](c1ccc(O)c(O)c1)[C@@H](O)C2 [Compound 6e, 8‐Isobutyl‐(+)‐Catechin‐(4α,8)‐(+)‐Catechin]				58.5 ± 8.12	67 ± 2.7
Oc1ccc([C@H]2Oc3c(-c4ccccc4)c(O)cc(O)c3[C@@H](c3c(O)cc(O)c4c3O[C@H](c3ccc(O)c(O)c3)[C@@H](O)C4)[C@@H]2O)cc1O [Compound 6f, 8‐Phenyl‐(+)‐Catechin‐(4α,8)‐(+)‐Catechin]				59.7 ± 7.43	70.4 ± 7.72
Oc1ccc([C@H]2Oc3c(-c4ccncc4)c(O)cc(O)c3[C@@H](c3c(O)cc(O)c4c3O[C@H](c3ccc(O)c(O)c3)[C@@H](O)C4)[C@@H]2O)cc1O [Compound 6g, 8‐(Pyridin‐4‐yl)‐(+)‐Catechin‐(4α,8)‐(+)‐Catechin]				55.9 ± 8.56	71.4 ± 1.74
Oc1ccc([C@H]2Oc3c(-c4cccnc4)c(O)cc(O)c3[C@@H](c3c(O)cc(O)c4c3O[C@H](c3ccc(O)c(O)c3)[C@@H](O)C4)[C@@H]2O)cc1O [Compound 6h, 8‐(Pyridin‐3‐yl)‐(+)‐Catechin‐(4α,8)‐(+)‐Catechin]				58.8 ± 7.12	75.3 ± 4.68
CC(=O)O[C@H]1[C@H](c2c(O)cc(O)c3c2O[C@H](c2ccc(O)c(O)c2)[C@@H](OC(C)=O)C3)c2c(O)cc(O)cc2O[C@@H]1c1ccc(O)c(O)c1 [Compound 8, 3‐O‐Acetyl‐(+)‐Catechin‐(4α,8)‐[3‐O‐Acetyl‐(+)‐Catechin]]				62 ± 5.58	69.3 ± 6.73
COc1cc(OC)c2c(c1)O[C@H](c1ccc(OC)c(OC)c1)[C@@H](O)[C@@H]2c1c(OC)cc(OC)c2c1O[C@H](c1ccc(OC)c(OC)c1)[C@@H](O)C2 [Compound 9, 5,7,3′,4′‐Tetra‐O‐Methyl‐(+)‐Catechin‐(4α, 8)‐[5,7,3′,4′‐Tetra‐O‐Methyl‐(+)‐Catechin]]				52.6 ± 7.34	66.8 ± 1.89
COc1cc([C@H]2Oc3cc(O)cc(O)c3[C@@H](c3c(O)cc(O)c4c3O[C@H](c3ccc(O)c(O)c3)[C@@H](O)C4)[C@@H]2O)ccc1O [Compound 13a, 3′‐O‐Methyl‐(+)‐Catechin‐(4α,8)‐(+)‐Catechin]				59.6 ± 2.82	65.5 ± 4.74
COc1ccc([C@H]2Oc3cc(O)cc(O)c3[C@@H](c3c(O)cc(O)c4c3O[C@H](c3ccc(O)c(O)c3)[C@@H](O)C4)[C@@H]2O)cc1O [Compound 13b, 4′‐O‐Methyl‐(+)‐Catechin‐(4α,8)‐(+)‐Catechin]				57.5 ± 7.11	70.54 ± 0.41
COc1cc([C@H]2Oc3c(c(O)cc(O)c3[C@@H]3c4c(O)cc(O)cc4O[C@H](c4ccc(O)c(O)c4)[C@H]3O)C[C@@H]2O)ccc1O [Compound 13c, (+)‐Catechin‐(4α,8)‐[3′‐O‐Methyl‐(+)‐Catechin]]				66.2 ± 10.6	66.1 ± 2.9
COc1ccc([C@H]2Oc3c(c(O)cc(O)c3[C@@H]3c4c(O)cc(O)cc4O[C@H](c4ccc(O)c(O)c4)[C@H]3O)C[C@@H]2O)cc1O [Compound 13d, (+)‐Catechin‐(4α,8)‐[4′‐O‐Methyl‐(+)‐Catechin]]				63 ± 6.27	69 ± 8.76
CC1=NN(c2ccccc2)C(=O)C1 [EDA, edaravone, reference compound]				60.8 ± 7.4	71.5 ± 9.84
